# Several values for one entry are separate records, joined by “and”; a condition that tells them apart may be missing. Equal values may be shown once.
# Tested on: 616215-338-R-J1-PDC complex spheroid viability
# Experiment: Anticancer human tumor 616215-338-R-J1-PDC patient-derived colon adenocarcinoma cell line growth inhibition [POLQ]
# Conditions: for viability, T/C: stronger effect = lower value
# Procedure: Multicellular complex tumor spheroid response to Polymerase (POL) inhibitors (novobiocin, ART-558, RP6685) in combination with a variety of drugs and investigational agents in selected tumor cell lines
# The POL inhibitors (novobiocin, ART-558, and RP6685) were evaluated both individually and in combination with standard of care and investigational anticancer small molecules within a complex spheroid model of solid tumors. . Complex spheroids include a stromal component modeled by human endothelial cells (HUVEC) and fibroblasts modeled by human mesenchymal stem cells (MSCs). The concentration ranges selected for each drug and investigational agent were based upon clinically achievable concentrations if the clinical Cmax of the agent was known.
# Compounds. The drugs and investigational agents: novobiocin (NSC847541), ART-558 (NSC835418), RP-6685 (NSC848927), peposertib (NSC802822), ceralasertib (NSC780249), elimusertib (NSC800525), camonsertib (NSC841442), AZD-1390 (NSC803789), olaparib (NSC753686), talazoparib (NSC767125), rucaparib (NSC756644), sotorasib (NSC818433), MRTX-1133 (NSC836407), SN-38 (NSC673596), topotecan (NSC609699), epotoside (NSC141540), doxorubicin (NSC123127), gemcitabine (NSC613327), 5-fluorouracil (NSC19893), paclitaxel (NSC125973), vemurafenib (NSC761431), MSA-2 (NSC828583), SN-011 (NSC837082), adavosertib (NSC754352), prexasertib (NSC758257), carboplatin (NSC241240) and oxaliplatin (NSC266046), were obtained from the National Cancer Institute (NCI) Developmental Therapeutics Program Chemical Repository (21). The FDA-approved anticancer drug set is available from the Developmental Therapeutics Program at https://dtp.cancer.gov/organization/dscb/obtaining/. […] The stock solutions were prepared in dimethyl sulfoxide (DMSO, Sigma-Aldrich, St. Louis, MO, cat. D2650), except for the platinum compounds which were prepared in saline (Quality Biological, Gaithersburg, MD, cat. 114-055-101), at 800-fold the tested concentration and stored at -70 degrees C prior to their use. All drugs and investigational agents were tested over a range starting from a high concentration at or near the clinical Cmax and decreasing in half-log increments. If the clinical Cmax for an agent had not been determined, the highest concentration tested was 10 microM, except for SN-38, which was tested at a high concentration of 1 microM.
# Cell Culture. All cells were maintained in an incubator at 37 degrees C and 5% CO2 with 95% humidity. The PDC lines were cultured according to standard operating procedures established by the NCI PDMR (https://pdmr.cancer.gov). Table 3 of the manuscript, lists the cell lines along with the number of the three cell types plated to form the mct-spheroids and media for tumor cell growth. After thawing, all PDC lines, except 997537-175-T-J1-PDC and 415267-285-R-J2-PDC, were cultured in Matrigel-coated flasks prepared with a working solution of 1X Ham's F-12 nutrient mix, without supplementation (Thermo Fisher Scientific, cat. 11765054), 100 U/mL penicillin-streptomycin (Thermo Fisher Scientific, cat. 15140122), and 2.5% Matrigel (Corning Inc., Corning, NY, cat. 354248) for the first three passages. The two PDC lines 997537-175-T-J1-PDC and 415267-285-R-J2-PDC were cultured on uncoated flasks. The 857933-349-R-J2-PDC line was cultured in 6C/Colon 1B media containing advanced DMEM/F-12 (Thermo Fisher Scientific, cat. 12634028), 10 mM HEPES (Thermo Fisher Scientific, cat. 15630080), 1X GlutaMAX supplement (Thermo Fisher Scientific, cat. 35050061), 0.1 mg/mL primocin (InvivoGen, San Diego, CA, cat. ant-pm-2), 10% defined fetal bovine serum, heat inactivated (HyClone Laboratories Inc., Logan, UT, cat. SH30070.03HI), 50% L-WRN conditioned media (ATCC, cat. CRL-3276), 1.25 mM N-Acetyl-L-cysteine (Sigma-Aldrich, cat. A9165), 10 mM nicotinamide (Sigma-Aldrich, cat. N0636), 1X B-27 supplement (Thermo Fisher Scientific, cat. 17504044), 1X N-2 supplement (Thermo Fisher Scientific, cat. […]
# [1] = curve of first compound, second compound 0.0316 µM
# [2] = curve of first compound, second compound 0.1 µM
# [3] = curve of first compound, second compound 0.316 µM
# [4] = curve of first compound, second compound 1 µM
# [5] = curve of first compound, second compound 3.16 µM
# [6] = curve of first compound, second compound 10 µM
# [7] = second compound 0.0316 µM, first compound 0.0316 µM
# [8] = second compound 0.0316 µM, first compound 0.1 µM
# [9] = second compound 0.0316 µM, first compound 0.316 µM
# [10] = second compound 0.0316 µM, first compound 1 µM
# [11] = second compound 0.0316 µM, first compound 3.16 µM
# [12] = second compound 0.0316 µM, first compound 10 µM
# [13] = second compound 0.1 µM, first compound 0.0316 µM
# [14] = second compound 0.1 µM, first compound 0.1 µM
# [15] = second compound 0.1 µM, first compound 0.316 µM
# [16] = second compound 0.1 µM, first compound 1 µM
# [17] = second compound 0.1 µM, first compound 3.16 µM
# [18] = second compound 0.1 µM, first compound 10 µM
# [19] = second compound 0.316 µM, first compound 0.0316 µM
# [20] = second compound 0.316 µM, first compound 0.1 µM
# [21] = second compound 0.316 µM, first compound 0.316 µM
# [22] = second compound 0.316 µM, first compound 1 µM
# [23] = second compound 0.316 µM, first compound 3.16 µM
# [24] = second compound 0.316 µM, first compound 10 µM
# [25] = second compound 1 µM, first compound 0.0316 µM
# [26] = second compound 1 µM, first compound 0.1 µM
# [27] = second compound 1 µM, first compound 0.316 µM
# [28] = second compound 1 µM, first compound 1 µM
# [29] = second compound 1 µM, first compound 3.16 µM
# [30] = second compound 1 µM, first compound 10 µM
# [31] = second compound 3.16 µM, first compound 0.0316 µM
# [32] = second compound 3.16 µM, first compound 0.1 µM
# [33] = second compound 3.16 µM, first compound 0.316 µM
# [34] = second compound 3.16 µM, first compound 1 µM
# [35] = second compound 3.16 µM, first compound 3.16 µM
# [36] = second compound 3.16 µM, first compound 10 µM
# [37] = second compound 10 µM, first compound 0.0316 µM
# [38] = second compound 10 µM, first compound 0.1 µM
# [39] = second compound 10 µM, first compound 0.316 µM
# [40] = second compound 10 µM, first compound 1 µM
# [41] = second compound 10 µM, first compound 3.16 µM
# [42] = second compound 10 µM, first compound 10 µM
# 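Also: spheroids exposed to compounds for one week before readout.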
# 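For viability, T/C in this document: percent viability relative to DMSO vehicle wells taken as 100%.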
compound,measurement,setting,value
CC(C)n1c(=O)n(C)c2cnc3cc(F)c(-c4ccc(OCCCN5CCCCC5)nc4)cc3c21 + Nc1ccc(C#CCN(C(=O)Cc2ncc(C(F)(F)F)cc2C(F)(F)F)c2ccc(F)cc2)nn1,IC50,[1],> 10 µM
same,IC50,[2],> 10 µM
same,IC50,[3],> 10 µM
same,IC50,[4],> 10 µM
same,IC50,[5],> 10 µM
same,IC50,[6],> 10 µM
same,"viability, T/C",[7],95%
same,"viability, T/C",[8],92.2%
same,"viability, T/C",[9],103%
same,"viability, T/C",[10],101%
same,"viability, T/C",[11],111%
same,"viability, T/C",[12],103%
same,"viability, T/C",[13],93.2%
same,"viability, T/C",[14],110%
same,"viability, T/C",[15],110%
same,"viability, T/C",[16],89.4%
same,"viability, T/C",[17],103%
same,"viability, T/C",[18],96.4%
same,"viability, T/C",[19],96.8%
same,"viability, T/C",[20],97.5%
same,"viability, T/C",[21],99.5%
same,"viability, T/C",[22],97.1%
same,"viability, T/C",[23],97.7%
same,"viability, T/C",[24],99.2%
same,"viability, T/C",[25],107%
same,"viability, T/C",[26],99.8%
same,"viability, T/C",[27],83.1%
same,"viability, T/C",[28],104%
same,"viability, T/C",[29],97.4%
same,"viability, T/C",[30],86.8%
same,"viability, T/C",[31],112%
same,"viability, T/C",[32],97.8%
same,"viability, T/C",[33],84.7%
same,"viability, T/C",[34],90.6%
same,"viability, T/C",[35],117%
same,"viability, T/C",[36],96.2%
same,"viability, T/C",[37],99.5%
same,"viability, T/C",[38],79.3%
same,"viability, T/C",[39],103%
same,"viability, T/C",[40],103%
same,"viability, T/C",[41],76.9%
same,"viability, T/C",[42],97.5%
COc1cc(C2c3cc4c(cc3C(OC3OC5COC(C)OC5C(O)C3O)C3COC(=O)C23)OCO4)cc(OC)c1O (stereo not given) + COC1C(OC(N)=O)C(O)C(Oc2ccc3c(O)c(NC(=O)c4ccc(O)c(CC=C(C)C)c4)c(=O)oc3c2C)OC1(C)C,IC50,[1],> 10 µM
same,IC50,[2],> 10 µM
same,IC50,[3],> 10 µM
same,IC50,[4],8.65 µM
same,IC50,[5],> 10 µM
same,IC50,[6],> 10 µM
same,"viability, T/C",[7],100%
same,"viability, T/C",[8],102%
same,"viability, T/C",[9],95.3%
same,"viability, T/C",[10],83%
same,"viability, T/C",[11],88.3%
same,"viability, T/C",[12],54.2%
same,"viability, T/C",[13],117%
same,"viability, T/C",[14],117%
same,"viability, T/C",[15],95.6%
same,"viability, T/C",[16],81.8%
same,"viability, T/C",[17],77.1%
same,"viability, T/C",[18],59.8%
same,"viability, T/C",[19],108%
same,"viability, T/C",[20],106%
same,"viability, T/C",[21],93.4%
same,"viability, T/C",[22],85.8%
same,"viability, T/C",[23],81%
same,"viability, T/C",[24],55%
same,"viability, T/C",[25],104%
same,"viability, T/C",[26],113%
same,"viability, T/C",[27],92.5%
same,"viability, T/C",[28],86.1%
same,"viability, T/C",[29],74.5%
same,"viability, T/C",[30],45.8%
same,"viability, T/C",[31],111%
same,"viability, T/C",[32],111%
same,"viability, T/C",[33],100%
same,"viability, T/C",[34],79%
same,"viability, T/C",[35],68.1%
same,"viability, T/C",[36],59.3%
same,"viability, T/C",[37],106%
same,"viability, T/C",[38],108%
same,"viability, T/C",[39],84.5%
same,"viability, T/C",[40],82.5%
same,"viability, T/C",[41],74.1%
same,"viability, T/C",[42],56.5%
COc1ccc([C@@H](O)c2cc(-c3ncnc4cc(N5CCOCC5)ccc34)c(F)cc2Cl)nn1 + Nc1ccc(C#CCN(C(=O)Cc2ncc(C(F)(F)F)cc2C(F)(F)F)c2ccc(F)cc2)nn1,IC50,[1],> 10 µM
same,IC50,[2],9.54 µM
same,IC50,[3],> 10 µM
same,IC50,[4],> 10 µM
same,IC50,[5],> 10 µM
same,IC50,[6],4.73 µM
same,"viability, T/C",[7],90.8%
same,"viability, T/C",[8],106%
same,"viability, T/C",[9],96%
same,"viability, T/C",[10],93%
same,"viability, T/C",[11],95.8%
same,"viability, T/C",[12],61.9%
same,"viability, T/C",[13],90.6%
same,"viability, T/C",[14],115%
same,"viability, T/C",[15],106%
same,"viability, T/C",[16],94%
same,"viability, T/C",[17],92.3%
same,"viability, T/C",[18],47.7%
same,"viability, T/C",[19],97.4%
same,"viability, T/C",[20],92.1%
same,"viability, T/C",[21],96.9%
same,"viability, T/C",[22],107%
same,"viability, T/C",[23],90.3%
same,"viability, T/C",[24],52.7%
same,"viability, T/C",[25],107%
same,"viability, T/C",[26],118%
same,"viability, T/C",[27],94.5%
same,"viability, T/C",[28],87.2%
same,"viability, T/C",[29],94.4%
same,"viability, T/C",[30],49.8%
same,"viability, T/C",[31],113%
same,"viability, T/C",[32],109%
same,"viability, T/C",[33],93.7%
same,"viability, T/C",[34],85.7%
same,"viability, T/C",[35],77.7%
same,"viability, T/C",[36],47.9%
same,"viability, T/C",[37],103%
same,"viability, T/C",[38],99.9%
same,"viability, T/C",[39],88.7%
same,"viability, T/C",[40],76.5%
same,"viability, T/C",[41],45.8%
same,"viability, T/C",[42],50%
COc1cc(C2c3cc4c(cc3C(OC3OC5COC(C)OC5C(O)C3O)C3COC(=O)C23)OCO4)cc(OC)c1O (stereo not given),"viability, T/C",compound 0.0316 µM,96.8% and 101% and 99.5%
same,"viability, T/C",compound 0.1 µM,107% and 95.5% and 104%
same,"viability, T/C",compound 0.316 µM,86.7% and 58% and 91.3%
same,"viability, T/C",compound 1 µM,88.7% and 52.2% and 78.8%
same,"viability, T/C",compound 3.16 µM,76.6% and 46.9% and 73%
same,"viability, T/C",compound 10 µM,46.8% and 28.6% and 54.6%
same,IC50,curve of compound,9.06 µM and 1.04 µM and > 10 µM
COc1ccc([C@@H](O)c2cc(-c3ncnc4cc(N5CCOCC5)ccc34)c(F)cc2Cl)nn1,"viability, T/C",compound 0.0316 µM,115% and 87.7% and 103%
same,"viability, T/C",compound 0.1 µM,107% and 104% and 100%
same,"viability, T/C",compound 0.316 µM,105% and 93.9% and 110%
same,"viability, T/C",compound 1 µM,93.6% and 86.9% and 104%
same,"viability, T/C",compound 3.16 µM,100% and 81.2% and 104%
same,"viability, T/C",compound 10 µM,69.3% and 54.8% and 75.3%
same,IC50,curve of compound,> 10 µM

# Reference: PubChem BioAssay AID1963843 (Molecular Pharmacology Branch, DTP, NCI, 2024)
